How the values were obtained:
[1] = system: G-quadruplex of oligonucleotide GGGTTAGGGTTAGGGTTAGGG (3.5 repeats of the human telomereic motif); assay: G-quadruplex stabilizing activity, fluorescence Tm (FAM+DABCYL oligonucleotide); assay type: binding
Source text: The G-quadruplex stabilizing activity may be determined by a method using the formation of a complex with fluorescein of which the experimental protocol is described below.
All the nucleotides, modified or otherwise, were synthesized by Eurogentec SA, Seraing, Belgium. The oligonucleotide FAM+DABCYL carries the catalogue reference OL-0371-0802. It has the sequence: […] corresponding to 3.5 repeats of the human telomereic motif (strand rich in G). The fluorescein is attached to the 5′ end, the DABCYL to the 3′ end, by the chemical arms described by Eurogentec. The concentration of the samples is checked by spectrophotometry, recording the absorbance spectrum between 220 and 700 nm and using the molar extinction coefficient provided by the supplier.
All the experiments were carried out in a 10 mM sodium cacodylate buffer pH 7.6 containing 0.1 M lithium chloride (or sodium chloride). The absence of fluorescent contamination in the buffer was checked beforehand. The fluorescent oligonucleotide is added at the final concentration of 0.2 μM.
All the measurements of fluorescence were carried out on a Spex Fluorolog DM1B apparatus, using an excitation line width of 1.8 nm and an emission line width of 4.5 nm. The samples are placed in a microquartz cuvette of 0.2×1 cm. The temperature of the sample is controlled by an external water bath. The oligonucleotide alone was analysed at 20, 30, 40, 50, 60, 70 and 80° C. The emission spectra are recorded using an excitation wavelength of 470 nm. The excitation spectra are recorded using either 515 nm or 588 nm as emission wavelength. The spectra are corrected for the response of the instrument by reference curves. A high extinction (80-90%) of the fluorescence of fluorescein at room temperature is observed, in agreement with an intramolecular folding of the oligonucleotide at 20° C. in the form of a G-quadruplex, which induces juxtaposition of its 5′ and 3′ ends which are respectively linked to fluorescein and to DABCYL. This juxtaposition causes an already-described phenomenon of extinction of fluorescence which is used for “molecular beacons”.
An oligonucleotide stock solution at the strand concentration of 0.2 μM in 0.1 M LiCl, 10 mM cacodylate buffer, pH 7.6, is prepared beforehand, heated briefly at 90° C. and slowly cooled to 20° C., and then distributed in aliquots of 600 μl in the fluorescence cuvettes. 3 μl of water (for the control) or 3 μl of test product (stock at 200 μM, final concentration 1 μM) are then added and mixed. The samples are then allowed to incubate for at least 1 hour at 20° C. before each measurement. The use of longer incubation times (up to 24 hours) has no influence on the result obtained.
Each experiment allows the measurement of only one sample. The latter is first incubated at an initial temperature of 20° C., heated to 80° C. over 38 minutes, left for 5 minutes at 80° C. and then cooled to 20° C. over 62 minutes. During this time, the fluorescence is measured simultaneously at two emission wavelengths (515 nm and 588 nm) using 470 nm as excitation wavelength. A measurement is carried out every 30 seconds. The temperature of the water bath is recorded in parallel, and the fluorescence profile as a function of the temperature is reconstituted from these values. The fluorescence profiles are then normalized between 20° C. and 80° C., and the temperature for which the intensity of emission at 515 nm is the mean of those at high and low temperature is called Tm. Under these conditions, the Tm of the reference sample without addition of product is 44° C. in a lithium chloride buffer. This temperature is increased to more than 55° C. in a sodium chloride buffer. The addition of a G-quadruplex-stabilizing compound induces an increase in the Tm. This increase is judged to be significant if it is greater than 3°.

[2] = system: human telomerease (HL60 cell extract); assay: Antitelomerease activity: extension of oligonucleotide TS followed by PCR amplification, with HL60 extract; assay type: biochemical; settings: read-out: TRAP IC50
Protocol: The antitelomerease biological activity is determined by the following experimental protocol:
The leukaemia line HL60 is obtained from ATCC (American Type Culture Collection, Rockville, USA). The cells are cultured in suspension in RPMI 1640 medium containing L-glutamine at 2 mM, penicillin 200 U/ml, streptomycin 200 μg/ml, gentamycin 50 μg/ml and supplemented with 10% heat-inactivated foetal calf serum.
An aliquot of 10^5 cells is centrifuged at 3000×G and the supernatant discarded. The cell pellet is resuspended by several successive pipettings in 200 μl of lysis buffer containing 0.5% CHAPS, 10 mM Tris-HCl, pH 7.5, 1 mM MgCl2, 1 mM EGTA, 5 mM β-mercaptoethanol, 0.1 mM PMSF and 10% glycerol and is stored in ice for 30 minutes. The lysate is centrifuged at 160,000×G for 20 minutes at 4° C. and 160 μl of supernatant are recovered. The proteins in the extract are assayed by the Bradford method. The extract is stored at −80° C.
The inhibition of the telomerease activity is determined by a protocol for extension of the oligonucleotide TS (^5′AATCGTTCGAGCAGAGTT^3′), in the presence of a cellular extract enriched in telomerease activity and compounds which are added at various concentrations (10, 1, 0.1 and 0.01 μM). The extension reaction is followed by a PCR amplification of the extension products with the aid of the oligonucleotides TS and CXext (^5′[…]^3′).
The reaction medium is prepared based on the following composition:
The oligonucleotides are obtained from Eurogentec (Belgium) and are stored at −20° C. at a stock concentration of 1 mg/ml in distilled water.
The reaction samples are assembled in 0.2 ml PCR tubes and one drop of paraffin oil is deposited on each of the reactions of the experiment before closing the tubes.
The reaction samples are then incubated in a Cetus 4800-type PCR apparatus under the following temperature conditions: • 15 minutes at 30° C., • 1 minute at 90° C., • followed by 30 cycles of, • 30 seconds at 94° C., • 30 seconds at 50° C., • and 1 minute 30 seconds at 72° C., • followed by a final cycle of 2 minutes at 72° C.
For each of the samples, an aliquot of 10 μl is pipetted under the oil layer and mixed with 5 μl of a loading buffer containing:
The samples are then analysed by electrophoresis on 12% acrylamide gel in a 1×TBE buffer for 1 hour at a voltage of 200 volts, with the aid of a Novex electrophoresis system.
The acrylamide gels are then dried on a sheet of Whatmann 3 mm paper at 80° C. for 1 hour.
The analysis and the quantification of the reaction products are carried out with the aid of an InstantImager apparatus (Pacard).
For each compound concentration tested, the results are expressed as percentage inhibition of the reaction and calculated from the untreated enzymatic control and from the enzyme-free sample (blank) according to the following formula: (compound value−blank value/enzymatic control value−blank value)×100.
The concentration of compound inducing a 50% inhibition of the telomerease reaction (IC50) is determined with the aid of a semilogarithmic graphical representation of the inhibition values obtained as a function of each of the compound concentrations tested.
A compound is considered to be active as an antitelomerease agent when the quantity inhibiting 50% of the telomerease reaction is in particular less than 5 μM.

Compound	G4 delta Tm [1]	IC50 [2]
Cc1cc(N)c2cc(Nc3nc(Nc4ccc5nc(C)cc(N)c5c4)nc(N4CCC(O)C4)n3)ccc2n1 (stereo not shown) [Example 153]	10 °C	410 nM
CCN(CC)CCSc1nc(Nc2ccc3nc(C)cc(N)c3c2)nc(Nc2ccc3nc(C)cc(N)c3c2)n1 [Example 130]	9 °C	300 nM
CCN(CCN(C)C)c1nc(Nc2ccc3nc(C)cc(N)c3c2)nc(Nc2ccc3nc(C)cc(N)c3c2)n1 [Example 53]	15.5 °C	200 nM
Cc1cc(N(C)C)c2cc(Nc3nc(Nc4ccc5nc(C)cc(N(C)C)c5c4)nc(N4CCC(O)C4)n3)ccc2n1 (stereo not shown) [Example 162]	17 °C	1700 nM
Cc1cc(N)c2cc(Nc3nc(Nc4ccc5nc(C)cc(N)c5c4)nc(Oc4ncccn4)n3)ccc2n1 [Example 111]	23.5 °C	480 nM
Cc1cc(N)c2cc(Nc3nc(Nc4ccc5nc(C)cc(N)c5c4)nc(OCCCN(C)C)n3)ccc2n1 [Example 31, 2,4-bis(4-amino-2-methylquinolin-6-yl)amino-6-(3-dimethylaminopropyl)oxy-[1,3,5]triazine]	15.3 °C	300 nM
COc1ccc(COc2nc(Nc3ccc4nc(C)cc(N)c4c3)nc(Nc3ccc4nc(C)cc(N)c4c3)n2)cc1 [Example 113]	6 °C	530 nM
Cc1cc(N)c2cc(Nc3nc(Nc4ccc5nc(C)cc(N)c5c4)nc(N4CCN(CCOCCO)CC4)n3)ccc2n1 [Example 69]	18 °C	160 nM
Cc1cc(N)c2cc(Nc3nc(Nc4ccc5nc(C)cc(N)c5c4)nc(NC(CO)CO)n3)ccc2n1 [Example 173]	11.5 °C	620 nM
Cc1cc(N)c2cc(Nc3nc(Nc4ccc5nc(C)cc(N)c5c4)nc(N4CCN(CCCN(C)C)CC4)n3)ccc2n1 [Example 64]	12 °C	90 nM
CCN(CC)CCOc1nc(Nc2ccc3nc(C)cc(N)c3c2)nc(Nc2ccc3nc(C)cc(N)c3c2)n1 [Example 106]	14.5 °C	280 nM
COCCOc1nc(Nc2ccc3nc(C)cc(N)c3c2)nc(Nc2ccc3nc(C)cc(N)c3c2)n1 [Example 112]	15 °C	320 nM
Cc1cc(N(C)C)c2cc(Nc3nc(NCCc4ccccc4)nc(Nc4ccc5nc(C)cc(N(C)C)c5c4)n3)ccc2n1 [Example 26]	4.8 °C	1100 nM
Cc1cc(N(C)C)c2cc(Nc3nc(NCCO)nc(Nc4ccc5nc(C)cc(N(C)C)c5c4)n3)ccc2n1 [Example 167]	6 °C	1100 nM
COCC1CCCN1c1nc(Nc2ccc3nc(C)cc(N(C)C)c3c2)nc(Nc2ccc3nc(C)cc(N(C)C)c3c2)n1 (stereo not shown) [Example 168]	16.5 °C	1100 nM
Cc1cc(N(C)C)c2cc(Nc3nc(Nc4ccc5nc(C)cc(N(C)C)c5c4)nc(NC(CO)C(=O)O)n3)ccc2n1 (stereo not shown) [Example 171]	13 °C	490 nM
Cc1cc(N)c2cc(Nc3nc(Nc4ccc5nc(C)cc(N)c5c4)nc(NC4CCN(C)CC4)n3)ccc2n1 [Example 13]	7.2 °C	260 nM
Cc1cc(N)c2cc(Nc3nc(Nc4ccc5nc(C)cc(N)c5c4)nc(N(C)CC4CCN(C)CC4)n3)ccc2n1 [Example 48]	14 °C	100 nM
COC(C)CNc1nc(Nc2ccc3nc(C)cc(N)c3c2)nc(Nc2ccc3nc(C)cc(N)c3c2)n1 (stereo not shown) [Example 156]	14.5 °C	1200 nM
COC(C)CNc1nc(Nc2ccc3nc(C)cc(N(C)C)c3c2)nc(Nc2ccc3nc(C)cc(N(C)C)c3c2)n1 (stereo not shown) [Example 165]	6.5 °C	1400 nM
COCCN1CCN(c2nc(Nc3ccc4nc(C)cc(N)c4c3)nc(Nc3ccc4nc(C)cc(N)c4c3)n2)CC1 [Example 73]	9.5 °C	370 nM
Cc1cc(N)c2cc(Nc3nc(Nc4ccccc4Cl)nc(NC4CCN(C)CC4)n3)ccc2n1 [Example 7]	3.0 °C	2400 nM
Cc1cc(N)c2cc(Nc3nc(Nc4ccc5nc(C)cc(N)c5c4)nc(N4CCN(C(=O)C5CCCO5)CC4)n3)ccc2n1 (stereo not shown) [Example 72]	9.5 °C	210 nM
Cc1cc(N)c2cc(Nc3nc(NCc4cccnc4)nc(Nc4ccc5nc(C)cc(N)c5c4)n3)ccc2n1 [Example 66]	9 °C	280 nM
Cc1cc(N)c2cc(Nc3nc(Nc4ccncc4)nc(Nc4ccc5nc(C)cc(N)c5c4)n3)ccc2n1 [Example 10]	8.9 °C	360 nM
COCC1CCCN1c1nc(Nc2ccc3nc(C)cc(N)c3c2)nc(Nc2ccc3nc(C)cc(N)c3c2)n1 (stereo not shown) [Example 159]	10.5 °C	430 nM

From patent US6887873B2, “Triazine derivatives and their application as antitelomerase agents” (Aventis Pharma S.A., priority 2001, dated 2005)
